# In patent US11129822B2 (priority 2016, dated 2021):
# Columns and labels:
# Sprague Dawley rats [1] = details: rat, in vivo
# Sprague Dawley rats [2] = details: rat, in vivo; cited from earlier work
smiles,measurement,setting,value
CN(C)C(=O)Oc1ccc[n+](C)c1 [pyridostigimine],side effects in treated rats,Sprague Dawley rats [1],no side effects
same,pyridostigmine-induced signs of toxicity,Sprague Dawley rats [2],"ocular discharge, nasal discharge, hypoactivity, prostration, ataxia, diarrhea, hunched posture, thin appearance and death"
